What was measured:
Details in all cases: 72 h
Caco-2 [1] = assay: cell viability relative to DMSO; higher = less toxic
Calu-3 [2] = assay: as above
HepG2 [3] = assay: as above
U2OS [4] = assay: as above
Vero E6 [5] = assay: as above
Caco-2 [6] = assay: relative viability EC50 (midpoint between 100% and the lowest measured viability); higher = less toxic
Calu-3 [7] = assay: as above
HepG2 [8] = assay: as above
U2OS [9] = assay: as above
Vero E6 [10] = assay: as above
Caco-2 [11] = assay: drug sensitivity score (DSS) for viability; higher = more toxic; extreme values may be limits of the assay
Calu-3 [12] = assay: as above
HepG2 [13] = assay: as above
U2OS [14] = assay: as above
Vero E6 [15] = assay: as above

Row | Compound | cell viability (Caco-2 [1]; 1 nM) | cell viability (Caco-2 [1]; 10 nM) | cell viability (Caco-2 [1]; 100 nM) | cell viability (Caco-2 [1]; 1000 nM) | cell viability (Caco-2 [1]; 10000 nM) | cell viability (Calu-3 [2]; 1 nM) | cell viability (Calu-3 [2]; 10 nM) | cell viability (Calu-3 [2]; 100 nM) | cell viability (Calu-3 [2]; 1000 nM) | cell viability (Calu-3 [2]; 10000 nM) | cell viability (HepG2 [3]; 1 nM) | cell viability (HepG2 [3]; 10 nM) | cell viability (HepG2 [3]; 100 nM) | cell viability (HepG2 [3]; 1000 nM) | cell viability (HepG2 [3]; 10000 nM) | cell viability (U2OS [4]; 1 nM) | cell viability (U2OS [4]; 10 nM) | cell viability (U2OS [4]; 100 nM) | cell viability (U2OS [4]; 1000 nM) | cell viability (U2OS [4]; 10000 nM) | cell viability (Vero E6 [5]; 1 nM) | cell viability (Vero E6 [5]; 10 nM) | cell viability (Vero E6 [5]; 100 nM) | cell viability (Vero E6 [5]; 1000 nM) | cell viability (Vero E6 [5]; 10000 nM) | relative viability EC50 (Caco-2 [6]) | relative viability EC50 (Calu-3 [7]) | relative viability EC50 (HepG2 [8]) | relative viability EC50 (U2OS [9]) | relative viability EC50 (Vero E6 [10]) | drug sensitivity score (Caco-2 [11]) | drug sensitivity score (Calu-3 [12]) | drug sensitivity score (HepG2 [13]) | drug sensitivity score (U2OS [14]) | drug sensitivity score (Vero E6 [15])
1 | COc1ccc(/C=C/C(=O)O)cc1 [trans-4-methoxycinnamic-acid] | 95.1% | 99.6% | 88.7% | 100% | 88.3% | 103% | 92.2% | 108% | 98% | 98.8% | 106% | 92% | 100% | 91.7% | 96.3% | 101% | 96.3% | 102% | 98.6% | 97.5% | 99.3% | 102% | 98.1% | 103% | 97.7% | > 10 µM | > 10 µM | > 10 µM | > 10 µM | > 10 µM | 0 | 0 | 0 | 0 | 0
2 | N[C@@H](C(=O)O)c1nn[nH]n1 (racemic) [tetrazol-5-yl-glycine-(RS)] | 97.2% | 95.6% | 104% | 98% | 90.6% | 112% | 109% | 105% | 95.2% | 89.3% | 91% | 107% | 101% | 96.6% | 108% | 104% | 98.5% | 103% | 93.7% | 104% | 95% | 104% | 90.2% | 98.3% | 107% | > 10 µM | > 10 µM | > 10 µM | > 10 µM | > 10 µM | 0 | 0.1 | 0 | 0 | 0
3 | Cc1ncc([N+](=O)[O-])n1CCO [metronidazole] | 100% | 94.4% | 101% | 94.9% | 98.4% | 97.3% | 95.9% | 109% | 97% | 102% | 97.7% | 102% | 111% | 99.8% | 105% | 104% | 97.6% | 98.9% | 96.9% | 98% | 96.8% | 99.7% | 96.2% | 93.5% | 100% | > 10 µM | > 10 µM | > 10 µM | > 10 µM | > 10 µM | 0 | 0 | 0 | 0 | 0
4 | CC1(C)O[C@@H]2C[C@H]3[C@@H]4CCC5=CC(=O)C=C[C@]5(C)[C@H]4[C@@H](O)C[C@]3(C)[C@]2(C(=O)CO)O1 [desonide] | 103% | 106% | 95% | 112% | 120% | 124% | 92.5% | 95% | 101% | 96.9% | 102% | 101% | 93.9% | 94.6% | 94.6% | 99.5% | 94.9% | 101% | 93.6% | 97.9% | 102% | 102% | 101% | 108% | 99.5% | > 10 µM | > 10 µM | > 10 µM | > 10 µM | > 10 µM | 0 | 0 | 0 | 0 | 0
5 | CN(C)CCCO[C@@H]1[C@H]2OC(C)(C)O[C@H]2O[C@@H]1[C@H](O)CO [amiprilose] | 107% | 86.8% | 101% | 95.1% | 97.3% | 98.7% | 102% | 98% | 101% | 100% | 91.3% | 102% | 97.3% | 99.6% | 85.8% | 102% | 99.8% | 100% | 103% | 101% | – | – | – | – | – | > 10 µM | > 10 µM | > 10 µM | > 10 µM | – | 0 | 0 | 0.2 | 0 | –
6 | CCOC(=O)CCNc1cc(N2CCc3ccccc3CC2)nc(-c2ccccn2)n1 [GSK-J4] | 93.2% | 88.2% | 104% | 70.9% | 17.4% | 103% | 89.5% | 96.5% | 97.5% | 21.2% | 103% | 103% | 97.8% | 104% | 33.5% | 97.8% | 97.6% | 99.3% | 94.8% | 5.5% | 93.9% | 101% | 91.7% | 96.8% | 63.2% | 1.28 µM | 2.93 µM | 3.45 µM | 2.74 µM | – | 8.6 | 4.7 | 3.4 | 6 | 2.3
7 | CCCC(=O)OCOC(=O)C1=C(C)NC(C)=C(C(=O)OC)C1c1cccc(Cl)c1Cl (stereo not drawn) [cleviprex] | 97.6% | 109% | 99.1% | 102% | 87% | 101% | 92% | 105% | 108% | 118% | 97.9% | 97.8% | 110% | 111% | 99.8% | 98.8% | 104% | 100% | 107% | 95.3% | – | – | – | – | – | > 10 µM | > 10 µM | > 10 µM | > 10 µM | – | 0.1 | 0 | 0 | 0 | –
8 | N[C@H](Cc1c[nH]cn1)C(=O)O [copper-histidine] | 106% | 102% | 107% | 98.8% | 107% | 105% | 94.4% | 84.8% | 82.1% | 99.5% | 110% | 98.7% | 103% | 104% | 89.3% | 101% | 96.1% | 95.8% | 97.3% | 97.3% | – | – | – | – | – | > 10 µM | > 10 µM | > 10 µM | > 10 µM | – | 0 | 0.1 | 0 | 0 | –

— the supplement of paper PMC13380429
